Measured values: PubChem BioAssay (NCI)
Several values for one entry are separate records, joined by “and”; a condition that tells them apart may be missing. Equal values may be shown once.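 Five compound concentrations were applied to cells in 96-well plates for 48 hours; endpoints were derived by simple linear interpolation of the resulting dose-response curve. GI50 is the concentration that inhibits growth by half. The concentration for full growth arrest is given as TGI.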

Tests used:
Assay in all cases: NCI tumour cell line growth inhibition, 48 h
[1] = tested on: RPMI-8226 leukemia
[2] = tested on: PC-3 prostate
[3] = tested on: UACC-62 melanoma
[4] = tested on: HOP-92 NSCLC
[5] = tested on: EKVX NSCLC
[6] = tested on: HOP-62 NSCLC
[7] = tested on: K-562 leukemia
[8] = tested on: COLO 205 colon

Row | SMILES | GI50 [1] | TGI [1] | GI50 [2] | TGI [2] | GI50 [3] | TGI [3] | GI50 [4] | TGI [4] | GI50 [5] | TGI [5] | GI50 [6] | TGI [6] | GI50 [7] | TGI [7] | GI50 [8] | TGI [8]
1 | COC(=O)[C@]12CC[C@@H](C)[C@H](C)[C@@H]1C1=CC[C@@H]3[C@@]4(C)C(C=O)=C[C@@](C)(COC(=O)c5ccco5)C4=CC[C@@]3(C)[C@]1(C)CC2 | 1.49 µM | 5.01 µM | 2.97 µM | > 100 µM | 0.0831 µM | 2.24 µM | 0.671 µM | 7.71 µM | 2.74 µM | 9.17 µM | 3.4 µM | 13.6 µM | 3.7 µM | 17.3 µM | 0.0247 µM | 0.0614 µM
2 | O=C(Cc1ccc(-c2ccc(OCCN3CCOCC3)cc2)cn1)NCc1ccccc1 | 0.0427 µM and 0.0358 µM | > 50.2 µM | 0.0446 µM and 0.0456 µM | > 100 µM | 0.0408 µM | > 100 µM | 0.0543 µM and 0.353 µM | 8.59 µM and > 7.16 µM |  | > 100 µM | 0.0372 µM and 0.066 µM | > 88.4 µM | 0.0255 µM and 0.0264 µM | > 100 µM | 0.0291 µM and 0.0361 µM | 0.0858 µM and 0.632 µM
3 | Cc1cc(O)cc(-c2nn(C)cc2-c2cc(N3CCOCC3)nc(-c3cccnc3)n2)c1 | 2.84 µM | 10.9 µM | 2.44 µM | 17.2 µM | 1.9 µM | 18.7 µM | 1.66 µM | 8.64 µM | 10.5 µM | > 100 µM |  |  | 1.96 µM | > 100 µM | 2.9 µM | 9.57 µM
4 | COc1ccc(-c2cncn2-c2ccc(-c3nc4cc(OC)c(OC)c(OC)c4s3)cc2)cc1N |  |  | 2.59 µM | > 100 µM | 9.04 µM | > 100 µM |  |  | 7.54 µM | > 100 µM |  |  | 3.38 µM | > 100 µM | 2.94 µM | 20.6 µM
5 | COC(=O)C[C@@H]1CC=CC(=O)/C1=C(O)/C=C/c1ccccc1 | 0.303 µM | 1.34 µM | 0.856 µM | 3.76 µM | 1.42 µM | 3.98 µM | 1.33 µM | 2.82 µM | 1.85 µM | 3.91 µM | 0.56 µM | 1.86 µM | 0.364 µM |  | 0.401 µM | 1.46 µM
6 | Nc1ncc(-c2ccc3ncnc(N4CCc5cc(F)c(Cl)cc54)c3c2)cc1C(F)(F)F | 2.33 µM | > 100 µM | 1.44 µM | > 100 µM |  |  |  |  |  |  | 3.18 µM | > 100 µM | 1.61 µM | > 100 µM |  | 
7 | Fc1cccc(-c2nc(-c3c[nH]c4ncccc34)cs2)c1 | > 100 µM | > 100 µM | > 100 µM | > 100 µM | > 100 µM | > 100 µM | 0.128 µM | 18.6 µM | 2.46 µM | > 100 µM | 25.7 µM | > 100 µM | > 100 µM | > 100 µM | > 100 µM | > 100 µM
8 | O=CCC(O)C(O)C(O)CO (configuration not stated) | > 100 µM | > 100 µM | > 100 µM | > 100 µM | > 100 µM | > 100 µM | 1.74 µM | > 100 µM | > 100 µM | > 100 µM | > 100 µM | > 100 µM | > 100 µM | > 100 µM | > 100 µM | > 100 µM
9 | N#Cc1cc2c(=S)[nH]c(=S)[nH]c2nc1SCc1ccccc1 | 26.4 µM | > 100 µM | 23.6 µM | > 100 µM | 17 µM | 54.6 µM | 30.1 µM | > 100 µM | 63.3 µM | > 100 µM | 63.2 µM | > 100 µM | 36.9 µM | > 100 µM | 46.2 µM | > 100 µM
10 | CCSc1nnc(-c2ccc3ccccc3c2O)n1-c1ccccc1 |  |  |  |  |  |  | 5 µM | 92.1 µM |  |  | 21.5 µM | > 100 µM |  |  |  | 
11 | NCCNc1nc2ccc(F)cc2c2c(=O)c3cc(F)ccc3sc12 | 2.18 µM | 5.11 µM | 1.48 µM | 2.85 µM | 1.66 µM | 3.06 µM | 1.02 µM | 4.6 µM | 1.65 µM | 3.95 µM | 1.39 µM | 2.87 µM | 2.14 µM | 5.41 µM |  | 
12 | COc1cc(-c2cn(-c3ccc(F)cc3)c(=O)[nH]2)cc(OC)c1OC | > 100 µM | > 100 µM | > 100 µM | > 100 µM | > 100 µM | > 100 µM | 79.4 µM | > 100 µM | > 100 µM | > 100 µM | 45 µM | > 100 µM | > 100 µM | > 100 µM | > 100 µM | > 100 µM
13 | COc1ccc(C#CC2=C(Br)C(=O)OC2)cc1 | 2.14 µM | > 50 µM | 11.6 µM | 29.8 µM | 6.48 µM | 12.8 µM |  |  | 6.9 µM | 17 µM |  |  | 4.77 µM | > 50 µM | 2.56 µM | 29.1 µM
14 | CN1CCN(c2ccc(NC(=O)c3cncnc3Nc3ccc4c(ccn4Cc4cccc(F)c4)c3)cc2)CC1 | 0.754 µM | 1.79 µM | 2.06 µM | 6.74 µM | 4.06 µM | 8.25 µM | 3.54 µM | 8.42 µM | 4.78 µM | 9.37 µM | 3.9 µM | 8.84 µM | 0.55 µM | 1.2 µM | 0.905 µM | 2.64 µM
15 | C=C(C)C1Cc2cc(C(C)=O)ccc2O1 (configuration not stated) |  | > 100 µM |  | > 100 µM |  | > 100 µM |  | > 100 µM |  | > 100 µM |  |  |  | > 100 µM |  | > 100 µM
16 | O=C(/C=C/c1cc(O)ccc1O)c1ccc(Cl)cc1 |  |  | 90.4 µM | > 100 µM | 17.5 µM | 40.1 µM | > 100 µM | > 100 µM | 23.4 µM | 54.7 µM | 20.5 µM | 52.2 µM | 46.1 µM | > 100 µM | 38.2 µM | > 100 µM
17 | C=CC(=O)N1CCC(CNc2ncnc(N)c2-c2ccc(Oc3ccccc3)cc2)CC1 | 15.1 µM | 42.6 µM | 24.9 µM | > 100 µM | 16 µM | 34.8 µM | 18.8 µM | 65.1 µM | 24.1 µM | > 100 µM | 25.8 µM | 82.6 µM | 22.5 µM | > 100 µM |  | 
18 | COc1ccc(OC)c(-c2nc3sc(C)cn3c2/C=C2\C(=O)N(C)c3ccccc32)c1 | 13.1 µM | 40.2 µM | 20.9 µM | > 100 µM | 13.4 µM | 31.1 µM |  |  | 32.2 µM | > 100 µM | 22.5 µM | 61.4 µM | 5.98 µM | 71.1 µM | 25.8 µM | 68 µM
19 | O=C1Nc2cc(-c3ccc(O)cc3)ccc2/C1=C/c1ccc[nH]1 | 0.486 µM | > 20.3 µM | 0.416 µM | > 25.8 µM | 0.049 µM | 10.9 µM | 1.14 µM | 5.12 µM |  |  | 0.559 µM | > 100 µM | 0.0335 µM | > 75.9 µM | 2.78 µM | 12.5 µM
20 | CCN1Cc2c(/C=C/c3ccccc3)nc3ccc(OC)cc3c2N(c2cccc(Cl)c2)C1 | 1.65 µM | 4.71 µM | 1.79 µM | 5.64 µM | 1.49 µM | 3.06 µM | 1.62 µM | 3.77 µM | 1.79 µM | 3.9 µM | 1.64 µM | 3.09 µM |  |  | 1.59 µM | 3 µM
21 | COc1ccc(/C=C\c2cc(OC)c(OC)c(OC)c2)cc1N/C=C\C(=O)c1c[nH]c2ccccc12 | < 0.01 µM | 19.6 µM | < 0.01 µM | > 100 µM | 4.38 µM | 64.2 µM | 0.0137 µM | 3.64 µM |  |  | < 0.01 µM | > 100 µM | < 0.01 µM | > 100 µM | < 0.01 µM | < 0.01 µM
22 | CCN1C(=O)N[C@H]2[C@@H]3NC(=O)c4ccc(Cl)n4[C@@H]3C[C@]21O | 0.363 µM | 2.08 µM | 1.68 µM | 11.2 µM |  |  | 1.04 µM | 7.69 µM | 1.27 µM | 6.89 µM | 0.466 µM | 3.71 µM | 0.363 µM | 5.09 µM | 0.369 µM | 1.56 µM
23 | Clc1ccc2c(NCCNc3nc(N4CCCCC4)nc4ccccc34)ccnc2c1 |  |  | 3.17 µM | 14.4 µM | 1.95 µM | 3.7 µM | 1.62 µM | 3.24 µM | 4.07 µM | 17.2 µM | 2.62 µM | 8.84 µM |  |  | 1.19 µM | 2.84 µM
24 | COc1ccc2c(ccc3oc([N+](=O)[O-])cc32)c1 | 0.247 µM | 0.81 µM | 0.305 µM | 3.63 µM | 0.158 µM | 0.333 µM | 0.129 µM | 0.407 µM |  |  | 0.412 µM | 2.48 µM | 0.0647 µM | 6.14 µM | 0.172 µM | 0.389 µM
25 | CC(NNC(=S)N1CCN(c2ccccn2)CC1)c1cccc[n+]1[O-] (configuration not stated) |  |  |  | > 100 µM |  | 22.8 µM |  | > 100 µM |  | > 100 µM |  | > 100 µM |  |  |  | > 100 µM
26 | CCCCCC/C=C\CCCCCCCCCc1cccc(OC)c1O |  | > 100 µM |  | > 100 µM |  | > 100 µM |  |  |  | > 100 µM |  | > 100 µM |  | > 100 µM |  | > 100 µM
